# Laboratory results: ChEMBL document CHEMBL4406811, “Optimization and Mechanistic Characterization of Pyridopyrimidine Inhibitors of Bacterial Biotin Carboxylase” (J Med Chem, 2019)
# Key:
# [1] = target: T1, PRKCZ (Homo sapiens, UniProt Q05513); assay: Inhibition of recombinant human full-length untagged PRKCZ expressed in baculovirus expression system at 25 uM using FRET-labeled Ser/Thr 07 peptide as substrate measured after 1 hr by Z'-lyte assay relative to control; settings: probe FRET-labeled Ser/Thr 07 peptide
# T1 sequence (Q05513 whole entry): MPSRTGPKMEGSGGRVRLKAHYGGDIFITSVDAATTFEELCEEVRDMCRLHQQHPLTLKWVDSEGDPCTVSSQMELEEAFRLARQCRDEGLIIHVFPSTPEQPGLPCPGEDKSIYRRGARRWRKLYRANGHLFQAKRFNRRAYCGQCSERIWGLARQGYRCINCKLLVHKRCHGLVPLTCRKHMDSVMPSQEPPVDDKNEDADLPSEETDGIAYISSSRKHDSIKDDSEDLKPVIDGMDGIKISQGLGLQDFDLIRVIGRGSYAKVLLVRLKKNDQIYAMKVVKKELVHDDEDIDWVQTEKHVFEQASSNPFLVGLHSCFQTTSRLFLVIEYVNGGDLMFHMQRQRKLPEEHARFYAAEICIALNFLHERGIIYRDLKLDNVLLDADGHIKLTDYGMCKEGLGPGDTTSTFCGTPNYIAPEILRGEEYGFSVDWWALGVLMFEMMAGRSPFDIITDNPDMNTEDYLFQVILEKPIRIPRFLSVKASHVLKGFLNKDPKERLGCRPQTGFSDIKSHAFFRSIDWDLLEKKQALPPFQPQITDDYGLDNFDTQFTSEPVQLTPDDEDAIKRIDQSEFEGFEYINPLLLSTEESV
# [2] = target: GSK3B (Homo sapiens, UniProt P49841); assay: Inhibition of recombinant human full-length His-tagged GSK3B expressed in baculovirus expression system at 25 uM using FRET-labeled Ser/Thr 09 peptide as substrate measured after 1 hr by Z'-lyte assay relative to control; settings: probe FRET-labeled Ser/Thr 09 peptide
# Sequence of GSK3B (P49841 whole entry, the tested form may be a part): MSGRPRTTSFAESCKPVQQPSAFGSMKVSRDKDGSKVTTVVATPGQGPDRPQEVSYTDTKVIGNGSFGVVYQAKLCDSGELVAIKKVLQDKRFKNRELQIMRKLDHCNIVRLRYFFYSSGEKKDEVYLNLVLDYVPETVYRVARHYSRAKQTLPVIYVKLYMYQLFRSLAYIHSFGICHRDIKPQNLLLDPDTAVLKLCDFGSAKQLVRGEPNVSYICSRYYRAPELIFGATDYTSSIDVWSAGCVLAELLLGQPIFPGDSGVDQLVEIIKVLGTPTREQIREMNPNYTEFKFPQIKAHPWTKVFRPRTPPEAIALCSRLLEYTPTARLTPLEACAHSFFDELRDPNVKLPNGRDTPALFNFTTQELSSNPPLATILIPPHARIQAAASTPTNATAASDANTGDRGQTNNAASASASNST
# [3] = target: PAK4 (Homo sapiens, UniProt O96013); assay: Inhibition of recombinant human GST-tagged PAK4 catalytic domain (295 to 591 residues) expressed in baculovirus expression system at 25 uM using FRET-labeled Ser/Thr 20 peptide as substrate measured after 1 hr by Z'-lyte assay relative to control; settings: probe FRET-labeled Ser/Thr 20 peptide
# [4] = target: CHEK2 (Homo sapiens, UniProt O96017); assay: Inhibition of recombinant human full-length His-tagged CHEK2 expressed in baculovirus expression system at 25 uM using FRET-labeled Ser/Thr 07 peptide as substrate measured after 1 hr by Z'-lyte assay relative to control; settings: probe FRET-labeled Ser/Thr 07 peptide
# [5] = target: PDK1 (Homo sapiens, UniProt Q15118); assay: Inhibition of recombinant human full-length His-tagged PDK1 expressed in baculovirus expression system at 25 uM using FRET-labeled Ser/Thr 07 peptide as substrate measured after 1 hr by Z'-lyte assay relative to control; settings: probe FRET-labeled Ser/Thr 07 peptide
# Sequence of PDK1 (Q15118 whole entry): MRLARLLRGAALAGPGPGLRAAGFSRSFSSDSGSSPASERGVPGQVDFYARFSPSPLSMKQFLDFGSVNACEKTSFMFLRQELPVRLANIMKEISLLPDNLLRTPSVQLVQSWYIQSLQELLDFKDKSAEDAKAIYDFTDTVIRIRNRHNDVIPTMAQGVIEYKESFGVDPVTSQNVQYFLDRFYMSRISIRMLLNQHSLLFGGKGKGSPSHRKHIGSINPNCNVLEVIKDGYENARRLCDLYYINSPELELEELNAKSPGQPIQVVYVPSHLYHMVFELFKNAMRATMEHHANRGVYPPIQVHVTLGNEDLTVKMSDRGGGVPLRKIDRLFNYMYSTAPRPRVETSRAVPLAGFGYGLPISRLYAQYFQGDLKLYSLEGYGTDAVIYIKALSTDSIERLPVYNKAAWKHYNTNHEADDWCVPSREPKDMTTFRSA
# [6] = target: MAPKAPK2 (Homo sapiens, UniProt P49137); assay: Inhibition of recombinant human full-length His-tagged MAPKAPK2 expressed in Escherichia coli at 25 uM using FRET-labeled Ser/Thr 04 peptide as substrate measured after 1 hr by Z'-lyte assay relative to control; settings: probe FRET-labeled Ser/Thr 04 peptide
# Sequence of MAPKAPK2 (P49137 whole entry): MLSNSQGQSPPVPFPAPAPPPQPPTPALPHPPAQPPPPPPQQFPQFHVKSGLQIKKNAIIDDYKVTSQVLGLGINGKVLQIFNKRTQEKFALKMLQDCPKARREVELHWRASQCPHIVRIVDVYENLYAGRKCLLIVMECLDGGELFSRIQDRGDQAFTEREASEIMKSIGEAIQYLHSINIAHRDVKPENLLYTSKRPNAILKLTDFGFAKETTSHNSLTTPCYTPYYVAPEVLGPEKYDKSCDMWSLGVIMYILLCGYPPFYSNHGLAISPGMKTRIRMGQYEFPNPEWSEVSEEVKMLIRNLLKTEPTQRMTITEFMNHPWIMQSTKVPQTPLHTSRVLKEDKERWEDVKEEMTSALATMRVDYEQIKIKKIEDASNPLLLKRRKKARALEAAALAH
# [7] = target: CSNK1D (Homo sapiens, UniProt P48730); assay: Inhibition of recombinant human full-length GST-tagged CSNK1D expressed in baculovirus expression system at 25 uM using FRET-labeled Ser/Thr 11 peptide as substrate measured after 1 hr by Z'-lyte assay relative to control; settings: probe FRET-labeled Ser/Thr 11 peptide
# Sequence of CSNK1D (P48730 whole entry, the tested form may be a part): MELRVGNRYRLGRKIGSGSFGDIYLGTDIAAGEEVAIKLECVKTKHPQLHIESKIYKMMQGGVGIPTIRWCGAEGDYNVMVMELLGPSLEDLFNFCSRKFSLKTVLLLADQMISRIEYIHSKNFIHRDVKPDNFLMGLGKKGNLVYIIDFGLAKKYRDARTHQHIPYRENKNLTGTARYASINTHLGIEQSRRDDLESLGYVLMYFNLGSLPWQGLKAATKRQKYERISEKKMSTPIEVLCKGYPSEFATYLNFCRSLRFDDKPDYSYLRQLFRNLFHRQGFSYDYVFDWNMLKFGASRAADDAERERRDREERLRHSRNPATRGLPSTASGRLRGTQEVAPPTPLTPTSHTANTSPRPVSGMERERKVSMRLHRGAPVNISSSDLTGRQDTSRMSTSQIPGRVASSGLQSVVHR
# [8] = target: NTRK1 (Homo sapiens, UniProt P04629); assay: Inhibition of recombinant human His-tagged NTRK1 cytoplasmic domain (441 to 796 residues) expressed in baculovirus expression system at 25 uM using FRET-labeled tyr 07 peptide as substrate measured after 1 hr by Z'-lyte assay relative to control; settings: probe FRET-labeled tyr 07 peptide
# [9] = target: T2, CHEK1 (Homo sapiens, UniProt O14757); assay: Inhibition of recombinant human full-length His-tagged CHEK1 expressed in baculovirus expression system at 25 uM using FRET-labeled Ser/Thr 19 peptide as substrate measured after 1 hr by Z'-lyte assay relative to control; settings: probe FRET-labeled Ser/Thr 19 peptide
# T2 sequence (O14757 whole entry): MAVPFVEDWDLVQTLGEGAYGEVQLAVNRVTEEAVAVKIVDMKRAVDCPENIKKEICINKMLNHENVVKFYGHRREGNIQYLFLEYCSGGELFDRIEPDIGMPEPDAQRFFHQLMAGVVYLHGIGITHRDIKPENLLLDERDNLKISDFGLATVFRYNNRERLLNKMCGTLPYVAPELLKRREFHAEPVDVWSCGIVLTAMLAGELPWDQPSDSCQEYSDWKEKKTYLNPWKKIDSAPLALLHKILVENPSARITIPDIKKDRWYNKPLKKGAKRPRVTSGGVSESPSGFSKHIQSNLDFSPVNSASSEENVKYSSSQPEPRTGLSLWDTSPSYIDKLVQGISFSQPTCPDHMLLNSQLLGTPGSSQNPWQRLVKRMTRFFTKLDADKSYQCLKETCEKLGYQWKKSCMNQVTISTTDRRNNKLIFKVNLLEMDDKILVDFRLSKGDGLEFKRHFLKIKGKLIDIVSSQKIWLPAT
# [10] = target: AKT1 (Homo sapiens, UniProt P31749); assay: Inhibition of recombinant human full-length His-tagged AKT1 expressed in baculovirus expression system at 25 uM using FRET-labeled Ser/Thr 05 peptide as substrate measured after 1 hr by Z'-lyte assay relative to control; settings: probe FRET-labeled Ser/Thr 05 peptide
# Sequence of AKT1 (P31749 whole entry, the tested form may be a part): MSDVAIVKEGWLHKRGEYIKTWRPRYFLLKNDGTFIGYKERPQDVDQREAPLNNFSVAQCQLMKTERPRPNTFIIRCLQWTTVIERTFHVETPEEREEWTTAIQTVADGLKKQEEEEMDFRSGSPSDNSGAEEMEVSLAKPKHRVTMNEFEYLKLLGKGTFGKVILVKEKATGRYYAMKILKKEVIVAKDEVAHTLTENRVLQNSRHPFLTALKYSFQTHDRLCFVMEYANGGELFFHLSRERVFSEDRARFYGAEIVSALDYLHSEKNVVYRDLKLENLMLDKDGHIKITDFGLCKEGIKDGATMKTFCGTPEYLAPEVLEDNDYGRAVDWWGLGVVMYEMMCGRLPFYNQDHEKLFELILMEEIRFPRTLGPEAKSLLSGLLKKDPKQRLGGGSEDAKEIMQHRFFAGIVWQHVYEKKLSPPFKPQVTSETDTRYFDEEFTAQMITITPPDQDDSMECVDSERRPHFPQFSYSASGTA
# [11] = target: EGFR (Homo sapiens, UniProt P00533); assay: Inhibition of recombinant human GST-tagged EGFR cytoplasmic domain (668 to 1210 residues) expressed in baculovirus expression system at 25 uM using FRET-labeled tyr 04 peptide as substrate measured after 1 hr by Z'-lyte assay relative to control; settings: probe FRET-labeled tyr 04 peptide
# Sequence of EGFR (P00533 whole entry, the tested form may be a part): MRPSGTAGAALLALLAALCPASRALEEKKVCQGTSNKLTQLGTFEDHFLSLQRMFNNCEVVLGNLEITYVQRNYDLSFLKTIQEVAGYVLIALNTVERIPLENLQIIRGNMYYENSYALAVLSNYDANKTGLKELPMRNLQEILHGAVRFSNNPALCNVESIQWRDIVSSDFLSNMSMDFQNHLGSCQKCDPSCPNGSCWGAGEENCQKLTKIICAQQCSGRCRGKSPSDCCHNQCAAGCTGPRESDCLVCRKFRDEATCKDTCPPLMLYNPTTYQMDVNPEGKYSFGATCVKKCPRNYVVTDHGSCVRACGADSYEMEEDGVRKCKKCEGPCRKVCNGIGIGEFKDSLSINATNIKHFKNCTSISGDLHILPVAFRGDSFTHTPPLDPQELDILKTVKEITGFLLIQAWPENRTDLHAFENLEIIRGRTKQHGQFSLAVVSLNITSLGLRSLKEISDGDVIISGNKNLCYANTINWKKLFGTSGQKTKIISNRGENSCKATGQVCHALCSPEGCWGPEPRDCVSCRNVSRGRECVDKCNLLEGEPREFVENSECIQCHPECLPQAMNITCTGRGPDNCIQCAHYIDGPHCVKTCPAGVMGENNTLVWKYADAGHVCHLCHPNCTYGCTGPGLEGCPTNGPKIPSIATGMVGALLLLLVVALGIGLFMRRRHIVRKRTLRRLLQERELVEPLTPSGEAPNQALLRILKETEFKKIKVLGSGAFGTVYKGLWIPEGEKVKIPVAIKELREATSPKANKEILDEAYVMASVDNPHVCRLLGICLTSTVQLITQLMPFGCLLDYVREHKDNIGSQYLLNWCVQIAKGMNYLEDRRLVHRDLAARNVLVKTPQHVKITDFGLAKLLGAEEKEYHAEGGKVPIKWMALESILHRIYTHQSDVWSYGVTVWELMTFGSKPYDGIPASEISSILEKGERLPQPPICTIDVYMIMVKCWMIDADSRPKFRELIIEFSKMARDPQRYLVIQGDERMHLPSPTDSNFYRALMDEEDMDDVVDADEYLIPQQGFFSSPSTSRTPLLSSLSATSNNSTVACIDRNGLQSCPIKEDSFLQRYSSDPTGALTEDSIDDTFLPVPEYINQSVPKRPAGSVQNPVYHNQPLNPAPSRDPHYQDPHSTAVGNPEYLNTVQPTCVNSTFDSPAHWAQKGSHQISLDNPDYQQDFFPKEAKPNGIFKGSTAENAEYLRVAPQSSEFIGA
# [12] = target: MAP4K4 (Homo sapiens, UniProt O95819); assay: Inhibition of recombinant human GST-tagged MAP4K4 catalytic domain (1 to 328 residues) expressed in baculovirus expression system at 25 uM using FRET-labeled Ser/Thr 07 peptide as substrate measured after 1 hr by Z'-lyte assay relative to control; settings: probe FRET-labeled Ser/Thr 07 peptide
# Sequence of MAP4K4 (O95819 whole entry, the tested form may be a part): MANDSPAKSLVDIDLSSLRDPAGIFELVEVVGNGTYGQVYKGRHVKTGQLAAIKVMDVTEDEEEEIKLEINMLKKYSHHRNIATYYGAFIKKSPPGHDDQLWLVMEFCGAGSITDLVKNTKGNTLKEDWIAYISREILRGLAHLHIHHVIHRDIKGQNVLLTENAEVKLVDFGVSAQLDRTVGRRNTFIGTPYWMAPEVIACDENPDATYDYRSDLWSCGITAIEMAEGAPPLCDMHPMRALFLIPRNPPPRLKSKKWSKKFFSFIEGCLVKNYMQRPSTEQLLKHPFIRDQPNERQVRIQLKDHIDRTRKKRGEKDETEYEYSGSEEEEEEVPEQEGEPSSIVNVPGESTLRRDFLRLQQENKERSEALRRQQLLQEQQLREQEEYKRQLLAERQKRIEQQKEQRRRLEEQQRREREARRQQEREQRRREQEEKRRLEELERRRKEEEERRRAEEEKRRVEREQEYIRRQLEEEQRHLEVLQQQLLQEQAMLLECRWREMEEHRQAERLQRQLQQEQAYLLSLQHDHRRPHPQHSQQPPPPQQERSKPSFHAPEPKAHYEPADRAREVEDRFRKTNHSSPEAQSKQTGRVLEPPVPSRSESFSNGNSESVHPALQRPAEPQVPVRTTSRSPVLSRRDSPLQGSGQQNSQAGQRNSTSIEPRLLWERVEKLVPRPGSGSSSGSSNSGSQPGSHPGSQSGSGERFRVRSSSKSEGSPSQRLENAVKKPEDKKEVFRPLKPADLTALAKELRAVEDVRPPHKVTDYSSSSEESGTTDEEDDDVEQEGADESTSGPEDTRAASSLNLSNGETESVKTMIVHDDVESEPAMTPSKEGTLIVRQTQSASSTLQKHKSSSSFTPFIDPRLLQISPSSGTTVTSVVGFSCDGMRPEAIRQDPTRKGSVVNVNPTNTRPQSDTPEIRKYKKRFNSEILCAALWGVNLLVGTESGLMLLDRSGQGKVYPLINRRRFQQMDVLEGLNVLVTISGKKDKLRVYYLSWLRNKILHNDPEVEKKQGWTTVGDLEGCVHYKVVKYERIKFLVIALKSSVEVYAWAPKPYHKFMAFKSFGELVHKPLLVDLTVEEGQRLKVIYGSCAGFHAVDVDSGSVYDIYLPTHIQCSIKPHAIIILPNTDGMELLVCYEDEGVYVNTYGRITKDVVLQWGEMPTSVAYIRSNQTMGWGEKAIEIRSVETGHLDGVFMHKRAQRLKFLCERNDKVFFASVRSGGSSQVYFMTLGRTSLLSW
# [13] = target: ABL1 (Homo sapiens, UniProt P00519); assay: Inhibition of full-length recombinant human His-tagged ABL1 cytoplasmic domain expressed in baculovirus expression system at 25 uM using FRET-labeled tyr 02 peptide as substrate measured after 1 hr by Z'-lyte assay relative to control; settings: probe FRET-labeled tyr 02 peptide
# [14] = target: FGFR1 (Homo sapiens, UniProt P11362); assay: Inhibition of recombinant human His-tagged FGFR1 cytoplasmic domain (308 to 731 residues) expressed in baculovirus expression system at 25 uM using FRET-labeled tyr 04 peptide as substrate measured after 1 hr by Z'-lyte assay relative to control; settings: probe FRET-labeled tyr 04 peptide
SMILES,"inhibition at 1 h, 25 µM [1] [%]","inhibition at 1 h, 25 µM [2] [%]","inhibition at 1 h, 25 µM [3] [%]","inhibition at 1 h, 25 µM [4] [%]","inhibition at 1 h, 25 µM [5] [%]","inhibition at 1 h, 25 µM [6] [%]","inhibition at 1 h, 25 µM [7] [%]","inhibition at 1 h, 25 µM [8] [%]","inhibition at 1 h, 25 µM [9] [%]","inhibition at 1 h, 25 µM [10] [%]","inhibition at 1 h, 25 µM [11] [%]","inhibition at 1 h, 25 µM [12] [%]","inhibition at 1 h, 25 µM [13] [%]","inhibition at 1 h, 25 µM [14] [%]"
Nc1ncc2cc(-c3c(Br)cccc3Br)c(N)nc2n1,0,6,20,13,3,10,16,47,-1,4,58,52,97,78
Nc1ncc2cc(-c3c(Cl)cccc3-c3cccnc3)c(N3C[C@@H]4[C@@H](N)[C@@H]4C3)nc2n1,5,4,25,20,0,26,3,47,28,6,65,21,38,57
CC(C)COc1cccc(Cl)c1-c1cc2cnc(N)nc2nc1N1C[C@@H]2[C@@H](N)[C@@H]2C1,-8,7,23,67,0,21,3,40,42,7,6,24,30,60
